Assay results taken from patent US10399931B2, “Octahydroanthracene compound, preparation method and application thereof” (SHANDONG XINHUA PHARMACEUTICAL CO., LTD., priority 2016, dated 2019).

Legend:
[1] = system: Human leukemia HL60 cells; assay: MTT assay, proliferation of human leukemia HL60 cells; assay type: cell-based; conditions: Homo sapiens, HL-60, 48 h, 10 μM, 48 h, Mean ± SE; read-out: Inhibitive rate (%) against HL60 cells
Protocol: The survival rate of cells was determined by MTT assay, which is based on the metabolic reduction of 3-(4,5-dimethyl-2thiahiazoyl)-3,5-di-phenyl-tetrazolium bromide (MTT) by viable cells. MTT is a yellow compound, a dye that accepts hydrogen ion, which can act on the respiratory chain in the mitochondria of viable cells. Under the action of succinate dehydrogenase and cytochrome C, the tetrazolium ring was cleaved to form blue Formazan crystals, and the amount of Formazan crystals generated was only proportional to the number of the viable cells. The enzymes disappeared in dead cells, so Formazan crystals could not be dissolved in MTT solution containing 20% sodium dodecyl sulfate (pH 4.7).
The cells in the logarithmic growth phase were selected and adjusted to an appropriate cell density, seeded in a 96-well plate, 100 μl/well, and cultured in a 37° C., 5% CO2 incubator. The cells were allowed to adhere overnight, then the culture medium was replaced and the drug was added to cultivate for 48 h. A blank control group, a drug administration group and a positive control group were set, with four repeats in each group.
After 48 h of drug treatment, the cells were incubated with 0.25 mg/ml MTT at 37° C. for 3-4 h, and 100 μl of dimethyl sulfoxide (DMSO) was added to each well after aspirating the culture solution.

[2] = system: mice; assay: LD50 test, single intragastric dose (preliminary safety evaluation); assay type: in vivo; conditions: 5000 mg/kg intragastric
[3] = system: SYP, PSD95 and GAP43; assay: Western blot of synaptic-related proteins in APP/PS1 mice; assay type: in vivo
Protocol: After the behavioral experiment, the animals were anesthetized with an intraperitoneal injection of 3.5% chloral hydrate and cut off the heads quickly to take out the brains. The hippocampus and cortex of the brain were separated on ice, and then weighed and quickly frozen with liquid nitrogen, placed in a refrigerator at −80° C. for standby application.
The tissue lysate (5 μL PMSF protease inhibitor per mL of lysate) was added to the frozen brain tissue at a ratio of […] (6 mL/g tissue), and ultrasonically homogenized in an ice bath. After homogenization, the tissue homogenate was placed in crushed ice for 30 min, and then centrifuged at 12,000×g for 20 min at 4° C. The supernatant (about 200 μL) was taken and stored in a refrigerator at −80° C. for later use. A portion of the supernatant was taken for protein quantification.
According to the kit instruction, BCA working reagent was prepared by mixing reagent A with reagent B at a ratio of 50:1 thoroughly. The BCA working reagent was freshly prepared for use at room temperature with a stable period of 24 h. […] (5) The absorbance of the protein (at a wavelength of 540 nm) was determined by a microplate reader. (6) The standard curve was made by Excel, and the concentration of the detected protein was calculated based on the standard curve. […]

CC1(C)CCC(C)(C)c2c1cc1c(c2NC(=O)c2ccc(NC(=O)NCCN)cc2)C(C)(C)CCC1(C)C [OAB-14, 1-(2-amino) ethyl-3-{4-[(1,1,4,4,5,5,8,8-octamethyl-1,2,3,4,5,6,7,8-octahydro-9-anthryl)carbamoyl]phenyl} urea]
inhibition at 10 µM [1]: 24.3 ± 3.18%
Abnormalities in organs such as heart, liver, spleen and kidney [2]: no abnormalities were detected
Adverse reactions observed with the naked eye [2]: no visible adverse reactions were observed
Expression of synaptic-related proteins SYP, PSD95 and GAP43 ([3]; 100 mg/kg group): significantly increased
Expression of synaptic-related proteins SYP, PSD95 and GAP43 ([3]; 200 mg/kg group): significantly increased
